Laboratory results as given in BindingDB's records for patent US10538523 (PFIZER LIMITED, 2020).
pKi: −log10 of the molar value.

Target: T1, Gamma-aminobutyric acid receptor subunit alpha-2 (Homo sapiens, UniProt P18507+P47869+P47870)
T1 sequence (P47869 whole entry): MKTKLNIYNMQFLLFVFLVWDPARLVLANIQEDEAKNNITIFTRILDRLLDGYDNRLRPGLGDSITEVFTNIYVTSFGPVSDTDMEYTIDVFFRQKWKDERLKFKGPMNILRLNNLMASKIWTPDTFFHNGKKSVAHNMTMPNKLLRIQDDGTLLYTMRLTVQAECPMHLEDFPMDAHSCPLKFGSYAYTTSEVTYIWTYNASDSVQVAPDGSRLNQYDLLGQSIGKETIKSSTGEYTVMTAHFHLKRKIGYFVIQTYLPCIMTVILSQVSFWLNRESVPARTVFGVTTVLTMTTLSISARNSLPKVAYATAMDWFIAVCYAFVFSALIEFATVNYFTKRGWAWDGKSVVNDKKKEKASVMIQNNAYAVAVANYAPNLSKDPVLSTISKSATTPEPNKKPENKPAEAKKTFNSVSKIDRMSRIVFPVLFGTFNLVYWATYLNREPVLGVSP
Experiment: Binding Assay
Method: 100 ul of radioligand and 100 ul of membrane in 50 mM Tris-HCl and 0.05% F127 with 1 ul of test compound was incubated for 2 hours to allow the reaction to achieve equilibrium, and then harvested onto filter plates, dried and counted on a TopCount NXT. The data was analysed, and the Ki values were presented as the geometric mean of at least two replicates.

- pKi: 7.93
SMILES: CCn1ncc2c(-c3ccc(F)c(-c4cc5c(cc4OC)C(=O)N(C)C5)c3)cnnc21 [US10538523, Example 3]
